Legend:
Experiment in all cases: radiometric filter-binding kinase assay, Kinase HotSpot
Conditions in all cases: compound 0.5 µM; ATP 10 µM
CDK7 CCNH MNAT1 (human) = CDK7 CCNH MNAT1 (human) (UniProt P50613+P51948+P51946)
FER (human) = FER (human) (UniProt P16591)
PRKX (human) = PRKX (human) (UniProt P51817)
AKT2 (human) = AKT2 (human) (UniProt P31751)
PTK2B (human) = PTK2B (human) (UniProt Q14289)
OXSR1 (human) = OXSR1 (human) (UniProt O95747)
MUSK (human) = MUSK (human) (UniProt O15146)
PRKCB2 (human) = PRKCB2 (human) (UniProt P05771)
MAPKAPK3 (human) = MAPKAPK3 (human) (UniProt Q16644)
CSNK1E (human) = CSNK1E (human) (UniProt P49674)
STK24 (human) = STK24 (human) (UniProt Q9Y6E0)
LCK (human) = LCK (human) (UniProt P06239)
IGF1R (human) = IGF1R (human) (UniProt P08069)
STK16 (human) = STK16 (human) (UniProt O75716)
LTK (human) = LTK (human) (UniProt P29376)
PAK7 (human) = PAK7 (human) (UniProt Q9P286)
MAPK8 (human) = MAPK8 (human) (UniProt P45983)
SRC (human) = SRC (human) (UniProt P12931)
MAPK12 (human) = MAPK12 (human) (UniProt P53778)
MAP3K11 (human) = MAP3K11 (human) (UniProt Q16584)
TSSK1B (human) = TSSK1B (human) (UniProt Q9BXA7)
TAOK2 (human) = TAOK2 (human) (UniProt Q9UL54)
STK39 (human) = STK39 (human) (UniProt Q9UEW8)
PRKCD (human) = PRKCD (human) (UniProt Q05655)
CDK1 CCNA2 (human) = CDK1 CCNA2 (human) (UniProt P06493+P20248)
ULK1 (human) = ULK1 (human) (UniProt O75385)
AXL (human) = AXL (human) (UniProt P30530)
CLK4 (human) = CLK4 (human) (UniProt Q9HAZ1)
PASK (human) = PASK (human) (UniProt Q96RG2)
MET (human) = MET (human) (UniProt P08581)
MAP4K2 (human) = MAP4K2 (human) (UniProt Q12851)
CDK4 CCND3 (human) = CDK4 CCND3 (human) (UniProt P30281+P11802)
RPS6KB1 (human) = RPS6KB1 (human) (UniProt P23443)
PAK1 (human) = PAK1 (human) (UniProt Q13153)
PAK1 (human), sequence (Q13153 whole entry, looked up): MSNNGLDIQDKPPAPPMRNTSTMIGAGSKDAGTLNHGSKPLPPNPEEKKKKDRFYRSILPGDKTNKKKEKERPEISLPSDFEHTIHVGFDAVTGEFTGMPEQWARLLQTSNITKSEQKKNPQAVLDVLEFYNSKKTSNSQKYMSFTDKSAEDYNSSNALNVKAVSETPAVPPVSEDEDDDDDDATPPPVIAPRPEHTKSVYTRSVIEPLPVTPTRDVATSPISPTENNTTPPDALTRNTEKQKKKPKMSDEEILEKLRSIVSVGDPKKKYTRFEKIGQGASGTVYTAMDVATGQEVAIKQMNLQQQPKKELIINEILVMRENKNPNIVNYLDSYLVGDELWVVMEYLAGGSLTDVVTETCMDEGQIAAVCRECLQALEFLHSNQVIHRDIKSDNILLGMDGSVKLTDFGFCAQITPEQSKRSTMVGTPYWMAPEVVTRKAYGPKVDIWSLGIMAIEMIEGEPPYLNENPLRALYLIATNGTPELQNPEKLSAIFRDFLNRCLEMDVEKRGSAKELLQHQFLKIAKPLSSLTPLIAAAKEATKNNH

MAP4K2 (human), sequence (Q12851 whole entry, looked up): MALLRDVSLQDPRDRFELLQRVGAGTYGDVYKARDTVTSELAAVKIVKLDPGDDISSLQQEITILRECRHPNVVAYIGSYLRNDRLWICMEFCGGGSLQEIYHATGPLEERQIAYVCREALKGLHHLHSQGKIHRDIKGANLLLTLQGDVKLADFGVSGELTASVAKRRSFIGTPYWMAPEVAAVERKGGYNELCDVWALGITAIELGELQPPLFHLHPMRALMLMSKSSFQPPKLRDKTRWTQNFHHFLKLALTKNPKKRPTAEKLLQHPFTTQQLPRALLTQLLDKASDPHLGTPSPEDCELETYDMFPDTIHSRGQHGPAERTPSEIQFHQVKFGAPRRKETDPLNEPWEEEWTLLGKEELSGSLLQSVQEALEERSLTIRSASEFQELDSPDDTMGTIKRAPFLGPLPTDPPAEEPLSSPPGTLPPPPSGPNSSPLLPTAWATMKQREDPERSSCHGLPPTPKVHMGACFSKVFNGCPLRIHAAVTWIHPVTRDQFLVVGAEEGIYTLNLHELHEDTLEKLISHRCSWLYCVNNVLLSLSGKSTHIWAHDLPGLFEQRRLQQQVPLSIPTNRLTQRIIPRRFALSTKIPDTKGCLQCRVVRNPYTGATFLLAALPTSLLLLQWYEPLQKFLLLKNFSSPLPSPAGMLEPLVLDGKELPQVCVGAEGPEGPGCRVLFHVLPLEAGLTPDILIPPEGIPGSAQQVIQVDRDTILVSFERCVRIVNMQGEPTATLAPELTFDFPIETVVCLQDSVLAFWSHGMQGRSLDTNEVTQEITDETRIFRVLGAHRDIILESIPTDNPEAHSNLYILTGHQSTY
PASK (human), sequence (Q96RG2 whole entry, looked up): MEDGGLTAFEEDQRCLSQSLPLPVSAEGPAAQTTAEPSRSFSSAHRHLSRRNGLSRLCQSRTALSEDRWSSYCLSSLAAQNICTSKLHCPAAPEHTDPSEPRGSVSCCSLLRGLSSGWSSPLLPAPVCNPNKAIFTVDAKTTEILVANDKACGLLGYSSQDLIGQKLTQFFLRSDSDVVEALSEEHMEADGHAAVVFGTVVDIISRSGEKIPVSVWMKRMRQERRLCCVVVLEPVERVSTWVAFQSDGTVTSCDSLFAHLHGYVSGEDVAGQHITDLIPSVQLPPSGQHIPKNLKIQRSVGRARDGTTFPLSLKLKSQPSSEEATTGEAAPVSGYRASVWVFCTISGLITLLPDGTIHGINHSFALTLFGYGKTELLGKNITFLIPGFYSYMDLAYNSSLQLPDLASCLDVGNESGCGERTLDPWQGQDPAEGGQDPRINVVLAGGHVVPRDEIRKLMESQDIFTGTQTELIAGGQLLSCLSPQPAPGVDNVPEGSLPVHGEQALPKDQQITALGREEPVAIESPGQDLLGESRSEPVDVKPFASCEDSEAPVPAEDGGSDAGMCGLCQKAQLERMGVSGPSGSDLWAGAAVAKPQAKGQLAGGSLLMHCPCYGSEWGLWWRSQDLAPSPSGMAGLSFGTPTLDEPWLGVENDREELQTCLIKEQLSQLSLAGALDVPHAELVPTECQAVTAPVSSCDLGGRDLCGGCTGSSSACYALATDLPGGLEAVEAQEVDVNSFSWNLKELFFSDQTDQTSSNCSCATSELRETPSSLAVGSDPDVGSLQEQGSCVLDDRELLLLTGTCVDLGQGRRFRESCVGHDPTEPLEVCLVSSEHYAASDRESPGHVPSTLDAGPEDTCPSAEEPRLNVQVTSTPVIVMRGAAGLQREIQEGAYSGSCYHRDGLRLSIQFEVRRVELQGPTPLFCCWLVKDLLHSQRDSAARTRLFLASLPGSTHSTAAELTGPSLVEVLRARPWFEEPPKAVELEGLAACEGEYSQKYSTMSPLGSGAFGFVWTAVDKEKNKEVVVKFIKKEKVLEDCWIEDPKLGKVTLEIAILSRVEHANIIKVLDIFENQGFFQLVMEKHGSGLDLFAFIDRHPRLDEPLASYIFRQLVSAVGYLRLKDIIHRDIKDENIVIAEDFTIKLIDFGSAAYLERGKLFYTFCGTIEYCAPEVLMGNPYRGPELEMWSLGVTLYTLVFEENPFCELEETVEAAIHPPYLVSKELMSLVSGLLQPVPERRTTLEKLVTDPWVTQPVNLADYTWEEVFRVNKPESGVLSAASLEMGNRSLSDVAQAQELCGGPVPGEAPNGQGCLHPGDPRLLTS
CSNK1E (human), sequence (P49674 whole entry, looked up): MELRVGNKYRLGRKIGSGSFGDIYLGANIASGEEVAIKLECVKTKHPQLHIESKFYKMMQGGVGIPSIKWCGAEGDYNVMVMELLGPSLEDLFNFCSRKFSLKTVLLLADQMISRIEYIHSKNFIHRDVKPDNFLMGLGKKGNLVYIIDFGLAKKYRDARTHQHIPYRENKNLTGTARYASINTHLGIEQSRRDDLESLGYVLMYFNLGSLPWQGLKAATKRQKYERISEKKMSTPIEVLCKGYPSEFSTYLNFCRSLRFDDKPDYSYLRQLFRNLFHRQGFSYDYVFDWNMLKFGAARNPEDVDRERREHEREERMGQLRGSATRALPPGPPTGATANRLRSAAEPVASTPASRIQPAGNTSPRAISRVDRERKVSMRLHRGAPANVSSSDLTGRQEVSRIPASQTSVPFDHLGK
CLK4 (human), sequence (Q9HAZ1 whole entry, looked up): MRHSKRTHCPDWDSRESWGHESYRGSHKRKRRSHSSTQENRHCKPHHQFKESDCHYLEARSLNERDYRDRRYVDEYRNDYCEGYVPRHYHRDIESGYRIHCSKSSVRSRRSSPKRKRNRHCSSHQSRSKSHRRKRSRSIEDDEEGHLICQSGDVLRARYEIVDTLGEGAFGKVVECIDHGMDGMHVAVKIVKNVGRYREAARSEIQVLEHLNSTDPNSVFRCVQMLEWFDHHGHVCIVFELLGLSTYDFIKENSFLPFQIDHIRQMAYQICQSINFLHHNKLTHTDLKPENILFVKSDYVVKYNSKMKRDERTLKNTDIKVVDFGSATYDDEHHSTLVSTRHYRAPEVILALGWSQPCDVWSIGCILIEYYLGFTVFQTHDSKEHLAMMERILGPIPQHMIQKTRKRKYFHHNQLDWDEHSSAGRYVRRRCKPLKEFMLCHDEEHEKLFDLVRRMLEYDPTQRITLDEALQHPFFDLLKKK
MAPK12 (human), sequence (P53778 whole entry, looked up): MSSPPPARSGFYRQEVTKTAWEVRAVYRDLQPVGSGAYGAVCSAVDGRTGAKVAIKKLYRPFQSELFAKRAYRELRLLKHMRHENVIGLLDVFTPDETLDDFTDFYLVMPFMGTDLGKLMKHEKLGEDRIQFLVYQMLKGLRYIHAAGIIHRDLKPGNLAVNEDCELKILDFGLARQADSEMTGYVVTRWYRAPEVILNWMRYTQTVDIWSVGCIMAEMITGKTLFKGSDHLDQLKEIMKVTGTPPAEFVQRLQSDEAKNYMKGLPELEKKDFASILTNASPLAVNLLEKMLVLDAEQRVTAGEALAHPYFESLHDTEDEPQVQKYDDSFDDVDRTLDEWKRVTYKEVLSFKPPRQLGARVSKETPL
PTK2B (human), sequence (Q14289 whole entry, looked up): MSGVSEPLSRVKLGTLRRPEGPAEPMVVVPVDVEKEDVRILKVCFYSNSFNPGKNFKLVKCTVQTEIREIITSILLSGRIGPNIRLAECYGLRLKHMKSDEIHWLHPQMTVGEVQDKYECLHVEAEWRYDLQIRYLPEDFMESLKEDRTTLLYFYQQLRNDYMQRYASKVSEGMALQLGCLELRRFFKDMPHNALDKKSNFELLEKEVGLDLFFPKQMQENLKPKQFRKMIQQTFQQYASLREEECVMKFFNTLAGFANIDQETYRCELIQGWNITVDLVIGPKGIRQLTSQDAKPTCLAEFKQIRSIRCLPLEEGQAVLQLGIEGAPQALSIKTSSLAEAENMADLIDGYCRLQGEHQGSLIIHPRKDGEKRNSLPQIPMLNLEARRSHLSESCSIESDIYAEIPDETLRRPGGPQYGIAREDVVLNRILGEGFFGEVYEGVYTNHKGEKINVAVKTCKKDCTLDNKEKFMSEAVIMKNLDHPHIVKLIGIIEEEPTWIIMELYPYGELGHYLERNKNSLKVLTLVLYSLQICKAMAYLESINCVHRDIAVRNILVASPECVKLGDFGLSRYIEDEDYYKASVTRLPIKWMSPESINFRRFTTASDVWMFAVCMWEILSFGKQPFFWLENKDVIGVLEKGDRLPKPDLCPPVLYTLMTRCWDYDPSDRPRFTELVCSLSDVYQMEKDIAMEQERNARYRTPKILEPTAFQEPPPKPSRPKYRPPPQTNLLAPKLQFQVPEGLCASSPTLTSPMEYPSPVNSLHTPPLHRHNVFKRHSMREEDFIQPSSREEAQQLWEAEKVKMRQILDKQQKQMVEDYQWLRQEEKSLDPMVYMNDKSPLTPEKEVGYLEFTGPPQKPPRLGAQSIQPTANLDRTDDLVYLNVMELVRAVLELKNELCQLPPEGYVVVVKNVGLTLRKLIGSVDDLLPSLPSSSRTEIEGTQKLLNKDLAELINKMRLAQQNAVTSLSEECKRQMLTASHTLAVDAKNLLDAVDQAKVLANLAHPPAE

O=C1Nc2ccccc2/C1=C1/Nc2ccccc2/C1=N\OCCC(O)CO (configuration not stated)
residual activity (CDK7 CCNH MNAT1 (human)): 77.9% | residual activity (FER (human)): 28.8% | residual activity (PRKX (human)): 84.2% | residual activity (AKT2 (human)): 90.1% | residual activity (PTK2B (human)): 30.5% | residual activity (OXSR1 (human)): 98.6% | residual activity (MUSK (human)): 58% | residual activity (PRKCB2 (human)): 88% | residual activity (MAPKAPK3 (human)): 98.9% | residual activity (CSNK1E (human)): 43.2% | residual activity (STK24 (human)): 51.9% | residual activity (LCK (human)): 29.7% | residual activity (IGF1R (human)): 39.1% | residual activity (STK16 (human)): 12.7% | residual activity (LTK (human)): 34.7% | residual activity (PAK7 (human)): 81% | residual activity (MAPK8 (human)): 101% | residual activity (SRC (human)): 22.6% | residual activity (MAPK12 (human)): 89.9% | residual activity (MAP3K11 (human)): 10.5% | residual activity (TSSK1B (human)): 76.6% | residual activity (TAOK2 (human)): 83.4% | residual activity (STK39 (human)): 79.3% | residual activity (PRKCD (human)): 80.6% | residual activity (CDK1 CCNA2 (human)): 56.7% | residual activity (ULK1 (human)): 98.3% | residual activity (AXL (human)): 42.7% | residual activity (CLK4 (human)): 6.19% | residual activity (PASK (human)): 89.8% | residual activity (MET (human)): 123% | residual activity (MAP4K2 (human)): 51.7% | residual activity (CDK4 CCND3 (human)): 66.1% | residual activity (RPS6KB1 (human)): 47.8% | residual activity (PAK1 (human)): 71.3%

CC(C)c1nn(-c2c(Cl)cccc2Cl)c2nc(Cc3ccc(OCCO)cc3)nc(O)c12
residual activity (CDK7 CCNH MNAT1 (human)): 60.3% | residual activity (FER (human)): 89.4% | residual activity (PRKX (human)): 96.3% | residual activity (AKT2 (human)): 92.4% | residual activity (PTK2B (human)): 96.1% | residual activity (OXSR1 (human)): 93.8% | residual activity (MUSK (human)): 96.2% | residual activity (PRKCB2 (human)): 96.7% | residual activity (MAPKAPK3 (human)): 89.2% | residual activity (CSNK1E (human)): 83.6% | residual activity (STK24 (human)): 47.9% | residual activity (LCK (human)): 88.6% | residual activity (IGF1R (human)): 24.8% | residual activity (STK16 (human)): 83.8% | residual activity (LTK (human)): 87.4% | residual activity (PAK7 (human)): 76.4% | residual activity (MAPK8 (human)): 95.4% | residual activity (SRC (human)): 86.7% | residual activity (MAPK12 (human)): 103% | residual activity (MAP3K11 (human)): 101% | residual activity (TSSK1B (human)): 104% | residual activity (TAOK2 (human)): 93.3% | residual activity (STK39 (human)): 99.9% | residual activity (PRKCD (human)): 108% | residual activity (CDK1 CCNA2 (human)): 7.71% | residual activity (ULK1 (human)): 125% | residual activity (AXL (human)): 98% | residual activity (CLK4 (human)): 81.2% | residual activity (PASK (human)): 95.7% | residual activity (MET (human)): 91% | residual activity (MAP4K2 (human)): 106% | residual activity (CDK4 CCND3 (human)): 45.6% | residual activity (RPS6KB1 (human)): 94.8% | residual activity (PAK1 (human)): 89.7%

O=C(O)/C=C/c1cc(Br)c(Br)c(Br)c1Br
residual activity (CDK7 CCNH MNAT1 (human)): 88.6% | residual activity (FER (human)): 96.6% | residual activity (PRKX (human)): 96% | residual activity (AKT2 (human)): 97.5% | residual activity (PTK2B (human)): 93.3% | residual activity (OXSR1 (human)): 93.5% | residual activity (MUSK (human)): 53.6% | residual activity (PRKCB2 (human)): 84.7% | residual activity (MAPKAPK3 (human)): 86.3% | residual activity (CSNK1E (human)): 83.6% | residual activity (STK24 (human)): 86.1% | residual activity (LCK (human)): 99.3% | residual activity (IGF1R (human)): 96% | residual activity (STK16 (human)): 90.4% | residual activity (LTK (human)): 94.5% | residual activity (PAK7 (human)): 90.6% | residual activity (MAPK8 (human)): 86.8% | residual activity (SRC (human)): 88.8% | residual activity (MAPK12 (human)): 103% | residual activity (MAP3K11 (human)): 96.3% | residual activity (TSSK1B (human)): 79.2% | residual activity (TAOK2 (human)): 88.9% | residual activity (STK39 (human)): 97.9% | residual activity (PRKCD (human)): 93.9% | residual activity (CDK1 CCNA2 (human)): 88.6% | residual activity (ULK1 (human)): 108% | residual activity (AXL (human)): 90.9% | residual activity (CLK4 (human)): 45.4% | residual activity (PASK (human)): 24.8% | residual activity (MET (human)): 84.5% | residual activity (MAP4K2 (human)): 89.3% | residual activity (CDK4 CCND3 (human)): 97.9% | residual activity (RPS6KB1 (human)): 91.4% | residual activity (PAK1 (human)): 105%

Reference: the kinase profiling compilation of Christmann-Franck et al. (2016)
